This note sets out measurements from patent US11207312B2, “Metallo-beta-lactamase inhibitors and methods of use thereof” (priority 2017, dated 2021).

One data set has as its target NDM-1 (Klebsiella pneumoniae, UniProt C7C422). Kind of data set: biochemical. Type of data set: biochemical. Conditions: CCF2-FA fluorescence assay, 2 hours at 25° C. The method in brief:
(§1)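 Enzyme (NDM-1 1 pM, IMP-1 2 pM, VIM-1 30 pM final) and 1.25 μM CCF2-FA incubated with inhibitor (20 to 0.00063 μM) for 2 h at 25° C in 100 mM KH2PO4 pH 7, 0.005% Tween-20, 10 μM ZnSO4. Fluorescence read at ex 405/em 460 nm; IC50 by 4-parameter fit.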

In a further data set the target is VIM-2 (Escherichia coli, UniProt Q5U7L7). The data set can be described thus: biochemical. To be noted: CCF2-FA fluorescence assay; read-out: VIM2 IC50.
For data set [1], the system named is P. aeruginosa MB9798 (efflux+, IMP-1 plasmid). To be noted: for MB9798 MITC95 P. aeruginosa uM Efflux WT: efflux + (MB9798) strain, imipenem at 2 μg/mL, in the presence of a class A, C, D serine β-lactamase inhibitor closely related to relebactam; for Efflux ratio: fold difference between efflux+ (MB9798) and efflux− (MB9799) strains. A digest of the protocol:
(§2)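 Isogenic P. aeruginosa PAO1 strains (efflux+ and multiple-efflux-pump-disrupted) carrying plasmid IMP-1, with inducible AmpC, tested by broth microdilution. Imipenem and/or ceftazidime fixed, usually at CLSI breakpoint, plus fixed class A/C β-lactamase inhibitor; titrated MBL inhibitor concentration restoring susceptibility recorded and compared between strains as efflux fold difference.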

A further data set deals with IMP-1 (Serratia marcescens, UniProt P52699). Kind of data set: biochemical. Conditions: CCF2-FA fluorescence assay, 2 hours at 25° C.; read-out: IMP1 IC50. The method in brief: as §1
For a further data set, the target named is VIM-1 (Pseudomonas aeruginosa (strain ATCC 15692 / DSM 22644 / CIP 104116 / JCM 14847 / LMG 12228 / 1C / PRS 101 / PAO1), UniProt A0A0F7KYQ8). The data set can be described thus: biochemical. To be noted: CCF2-FA fluorescence assay, 2 hours at 25° C.; read-out: VIM1 IC50. The method in brief: as §1
Data set [2] deals with Serratia marcescens expressing IMP-1 (CL5741). The format is cell-based. To be noted: with imipenem 1 μg/ml; 95% inhibition of bacterial growth. A digest of the protocol:
(§3)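 Read-out is absorbance after 22–24 h at 35 °C, with MITC95 taken as the lowest inhibitor concentration that, alongside imipenem at 1 μg/ml, suppresses 95% of bacterial growth. Inocula came from saline-suspended colonies diluted 1:100 into 1.1× CAMHB.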

In data set [3] the test system is Escherichia coli expressing NDM-1 (CLB30016). Type of data set: cell-based. Conditions: with imipenem 1 μg/ml; 95% inhibition of bacterial growth. A digest of the protocol: as §3
Data set [4] concerns Klebsiella pneumoniae expressing VIM-1 (IHMA599644). Type of data set: cell-based. Conditions: with imipenem 1 μg/ml; 95% inhibition of bacterial growth. A digest of the protocol: as §3
Data set [5] relates to P. aeruginosa MB9799 (efflux-, IMP-1 plasmid). Type of data set: cell-based, Pseudomonas aeruginosa. To be noted: efflux − (MB9799) strain; imipenem at 2 μg/mL; in the presence of a class A, C, D serine β-lactamase inhibitor closely related to relebactam. A digest of the protocol:
as §2

IMP-1, sequence (P52699 whole entry, looked up, species assumed): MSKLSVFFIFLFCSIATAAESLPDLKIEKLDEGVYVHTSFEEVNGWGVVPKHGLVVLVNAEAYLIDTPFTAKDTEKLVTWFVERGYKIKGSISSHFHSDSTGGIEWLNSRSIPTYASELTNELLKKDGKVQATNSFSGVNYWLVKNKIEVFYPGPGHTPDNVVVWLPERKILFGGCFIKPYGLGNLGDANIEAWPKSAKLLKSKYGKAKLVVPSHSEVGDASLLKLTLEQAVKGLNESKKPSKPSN
NDM-1, sequence (C7C422 whole entry, looked up, species assumed): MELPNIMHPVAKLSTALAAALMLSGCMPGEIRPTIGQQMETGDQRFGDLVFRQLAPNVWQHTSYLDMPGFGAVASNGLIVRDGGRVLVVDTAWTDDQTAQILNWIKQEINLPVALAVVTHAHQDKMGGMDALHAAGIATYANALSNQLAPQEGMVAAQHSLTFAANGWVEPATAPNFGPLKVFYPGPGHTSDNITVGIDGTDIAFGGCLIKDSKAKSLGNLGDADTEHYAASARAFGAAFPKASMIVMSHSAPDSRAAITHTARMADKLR

As to `NC[C@@H](O)CNS(=O)(=O)c1ccc(N[C@@H]2CCC[C@H]2N)c(-c2nn[nH]n2)c1S(N)(=O)=O` [Example 179, N1-((R)-3-amino-2-hydroxypropyl)-4-(((1R,2R)-2-aminocyclopentyl)amino)-3-(2H-tetrazol-5-yl)benzene-1,2-disulfonamide], the IC50 on NDM-1 is 26.2 nM; at VIM-2 it was 83.1 nM; on IMP-1, 69.2 nM; on VIM-1, 49.9 nM. Further, the “MB9798 MITC95 P. aeruginosa uM Efflux WT” value in [1] is 25.00 µM. For the same molecule, the Efflux ratio in data set [1] came out at 4.00. Also, the “CL5741 S. marcescens MITC95 IMP” value in data set [2] came out at 6.25 µM. Also, the “CLB30016 E. coli MITC95 NDM” value in data set [3] turned out to be 0.78 µM. For the same molecule, the “IHMA599644 K. pneumoniae MITC95 VIM” value in data set [4] was found to be 12.50 µM. Besides, the “MB9799 MITC95 P. aeruginosa uM Efflux Mutant” value in data set [5] is 6.25 µM.

For `NC[C@@H](O)CNS(=O)(=O)c1ccc(NC2CCC(N)C2)c(-c2nn[nH]n2)c1S(N)(=O)=O` (stereo partly drawn) [compound 184, N1-((R)-3-amino-2-hydroxypropyl)-4-((3-aminocyclopentyl)amino)-3-(2H-tetrazol-5-yl)benzene-1,2-disulfonamide], the IC50 against NDM-1 was determined as 19.4 nM; at VIM-2, 44.4 nM; on IMP-1 it was 39.4 nM; at VIM-1, 4.61 nM. For the same molecule, the “MB9798 MITC95 P. aeruginosa uM Efflux WT” value in data set [1] is 6.25 µM. The Efflux ratio in [1] is 2.00. Besides, in data set [2], the “CL5741 S. marcescens MITC95 IMP” value is 1.56 µM. The “CLB30016 E. coli MITC95 NDM” value in data set [3] is 0.78 µM. Also, the “IHMA599644 K. pneumoniae MITC95 VIM” value in data set [4] was 1.56 µM. Besides, in data set [5], the “MB9799 MITC95 P. aeruginosa uM Efflux Mutant” value was 3.13 µM.

On to `CC1(CN)CCN(c2ccc(S(=O)(=O)NC[C@H](O)CN)c(S(N)(=O)=O)c2-c2nn[nH]n2)CC1` [Example 138, (R)-N1-(3-amino-2-hydroxypropyl)-4-(4-(aminomethyl)-4-methylpiperidin-1-yl)-3-(2H-tetrazol-5-yl)benzene-1,2-disulfonamide], for which the IC50 on NDM-1 was determined as 2.47 nM; on VIM-2 it was 10.3 nM; at IMP-1, 6.91 nM; at VIM-1 it was 0.71 nM. For the same molecule, the “MB9798 MITC95 P. aeruginosa uM Efflux WT” value in [1] amounted to 1.56 µM. Moreover, the Efflux ratio in data set [1] came out at 2.00. The “CL5741 S. marcescens MITC95 IMP” value in [2] is 1.56 µM. In addition, the “CLB30016 E. coli MITC95 NDM” value in data set [3] was 1.56 µM. Further, the “IHMA599644 K. pneumoniae MITC95 VIM” value in data set [4] came to 1.56 µM. Moreover, the “MB9799 MITC95 P. aeruginosa uM Efflux Mutant” value in [5] is 0.78 µM.

As for `NS(=O)(=O)c1c(S(=O)(=O)N[C@@H]2CCNC2)ccc(N2CC[C@H](O)C2)c1-c1nnn[nH]1` [Example 97, 4-[(3S)-3-hydroxypyrrolidin-1-yl]-N1-[(3R)-pyrrolidin-3-yl]-3-(1H-tetrazol-5-yl)benzene-1,2-disulfonamide], the IC50 on NDM-1 was 6.21 nM; on VIM-2, 4.43 nM; at IMP-1, 11.6 nM; at VIM-1, 2.49 nM. In addition, the “MB9798 MITC95 P. aeruginosa uM Efflux WT” value in data set [1] is 6.25 µM. In data set [1], the Efflux ratio came to 2.00. In addition, the “CL5741 S. marcescens MITC95 IMP” value in [2] came to 6.25 µM. For the same molecule, in data set [3], the “CLB30016 E. coli MITC95 NDM” value amounted to 3.13 µM. Further, the “IHMA599644 K. pneumoniae MITC95 VIM” value in [4] was 12.50 µM. In addition, the “MB9799 MITC95 P. aeruginosa uM Efflux Mutant” value in data set [5] came out at 3.13 µM.

As to `NC[C@@H]1CCCN(c2ccc(S(=O)(=O)N[C@@H]3CCNC3)c(S(N)(=O)=O)c2-c2nnn[nH]2)C1` [Example 78, 4-[(3S)-3-(aminomethyl)piperidin-1-yl]-N1-[(3R)-pyrrolidin-3-yl]-3-(1H-tetrazol-5-yl)benzene-1,2-disulfonamide], the IC50 is 5.4 nM against NDM-1, 3.01 nM on VIM-2, 35.4 nM at IMP-1 and 0.66 nM on VIM-1. For the same molecule, in [1], the “MB9798 MITC95 P. aeruginosa uM Efflux WT” value stood at 6.25 µM. In data set [1], the Efflux ratio is listed as 8.00. Also, the “CL5741 S. marcescens MITC95 IMP” value in data set [2] stood at 1.56 µM. Besides, in [3], the “CLB30016 E. coli MITC95 NDM” value was determined as 0.39 µM. The “IHMA599644 K. pneumoniae MITC95 VIM” value in [4] is 1.56 µM. Besides, the “MB9799 MITC95 P. aeruginosa uM Efflux Mutant” value in data set [5] worked out at 0.78 µM.

A word on the IC50: it is the concentration that gives 50% inhibition.
